Data: patent US20120122860A1, “SOLID FORMS OF SULFONAMIDES AND AMINO ACIDS” (Plexxikon, Inc., priority 2009, published 2012)
pIC50: −log10 of the molar value.

What was measured:
Btk = Btk (Homo sapiens, UniProt Q06187); experiment: Kinase activity assay, Btk
B-Raf = B-Raf (Homo sapiens, UniProt P15056); experiment: Kinase activity assay, B-Raf; assay type: biochemical; conditions: read-out: activity toward kinase B-Raf, IC50
B-Raf V600E = B-Raf V600E (Homo sapiens, UniProt P15056, V600E); experiment: Kinase activity assay, B-Raf V600E; assay type: biochemical; conditions: read-out: activity toward kinase B-Raf V600E, IC50
Sequence of B-Raf V600E (P15056 whole entry V600E): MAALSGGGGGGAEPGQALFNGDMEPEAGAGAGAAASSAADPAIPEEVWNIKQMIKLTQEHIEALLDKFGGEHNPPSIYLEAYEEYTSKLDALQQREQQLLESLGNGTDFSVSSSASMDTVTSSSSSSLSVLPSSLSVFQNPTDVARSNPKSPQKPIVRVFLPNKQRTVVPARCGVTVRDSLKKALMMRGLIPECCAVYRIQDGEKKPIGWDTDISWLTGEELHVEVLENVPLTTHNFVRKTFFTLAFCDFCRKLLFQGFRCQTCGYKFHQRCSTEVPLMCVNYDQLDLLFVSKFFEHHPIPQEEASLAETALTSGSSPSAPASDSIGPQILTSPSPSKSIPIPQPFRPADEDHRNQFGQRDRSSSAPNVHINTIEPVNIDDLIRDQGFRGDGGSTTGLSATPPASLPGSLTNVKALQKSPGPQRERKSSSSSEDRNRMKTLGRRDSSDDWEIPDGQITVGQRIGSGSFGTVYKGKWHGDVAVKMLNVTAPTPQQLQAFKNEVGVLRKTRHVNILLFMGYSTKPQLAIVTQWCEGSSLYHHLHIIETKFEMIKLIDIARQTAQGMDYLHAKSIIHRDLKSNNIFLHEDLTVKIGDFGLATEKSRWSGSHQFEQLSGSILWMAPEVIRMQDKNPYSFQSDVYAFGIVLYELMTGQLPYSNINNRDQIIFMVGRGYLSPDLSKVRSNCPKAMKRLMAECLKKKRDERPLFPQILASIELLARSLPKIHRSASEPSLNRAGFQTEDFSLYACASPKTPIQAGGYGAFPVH

Kdr = Kdr (Homo sapiens, UniProt P35968); experiment: Kinase activity assay, Kdr
TEC = biological target: T1, TEC (Homo sapiens, UniProt P42680); experiment: Kinase activity assay, TEC
T1 sequence (P42680 1-631): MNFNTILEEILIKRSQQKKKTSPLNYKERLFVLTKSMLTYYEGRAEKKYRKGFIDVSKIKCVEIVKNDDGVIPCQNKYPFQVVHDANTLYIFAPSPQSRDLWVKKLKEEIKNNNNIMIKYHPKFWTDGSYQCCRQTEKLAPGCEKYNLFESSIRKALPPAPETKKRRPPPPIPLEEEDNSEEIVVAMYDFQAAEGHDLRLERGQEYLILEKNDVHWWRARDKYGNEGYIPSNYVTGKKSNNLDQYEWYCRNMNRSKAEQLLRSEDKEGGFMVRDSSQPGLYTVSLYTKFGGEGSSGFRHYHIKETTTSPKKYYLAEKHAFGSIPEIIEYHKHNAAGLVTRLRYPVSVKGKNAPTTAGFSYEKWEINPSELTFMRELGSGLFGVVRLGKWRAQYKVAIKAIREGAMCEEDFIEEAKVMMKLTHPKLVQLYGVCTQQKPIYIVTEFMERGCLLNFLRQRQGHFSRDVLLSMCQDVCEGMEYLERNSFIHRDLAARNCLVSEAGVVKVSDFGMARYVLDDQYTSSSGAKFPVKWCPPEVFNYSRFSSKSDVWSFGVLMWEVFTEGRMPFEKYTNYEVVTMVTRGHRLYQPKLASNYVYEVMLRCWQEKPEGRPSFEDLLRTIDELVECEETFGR

A-Raf = biological target: T2, A-Raf (Homo sapiens, UniProt P10398); experiment: Kinase activity assay, A-Raf
T2 sequence (P10398 1-606): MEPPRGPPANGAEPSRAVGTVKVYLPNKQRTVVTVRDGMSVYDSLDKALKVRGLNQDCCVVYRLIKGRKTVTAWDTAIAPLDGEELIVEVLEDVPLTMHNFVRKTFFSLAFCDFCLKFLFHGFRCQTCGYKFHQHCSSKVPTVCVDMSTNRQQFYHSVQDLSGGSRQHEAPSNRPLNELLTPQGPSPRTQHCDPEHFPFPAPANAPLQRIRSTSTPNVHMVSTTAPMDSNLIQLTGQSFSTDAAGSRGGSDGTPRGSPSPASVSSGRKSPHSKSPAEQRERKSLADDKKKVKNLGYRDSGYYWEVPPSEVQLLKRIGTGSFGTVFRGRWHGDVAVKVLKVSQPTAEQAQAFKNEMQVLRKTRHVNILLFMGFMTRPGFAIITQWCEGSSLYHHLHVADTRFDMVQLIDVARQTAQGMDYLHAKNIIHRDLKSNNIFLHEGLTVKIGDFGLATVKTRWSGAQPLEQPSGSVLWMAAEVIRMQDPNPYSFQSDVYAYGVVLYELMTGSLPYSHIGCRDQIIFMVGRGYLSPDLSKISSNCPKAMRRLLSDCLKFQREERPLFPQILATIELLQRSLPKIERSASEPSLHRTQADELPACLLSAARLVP

C-Raf = C-Raf (Homo sapiens, UniProt P04049); experiment: Kinase activity assay, C-Raf
Sequence of C-Raf (P04049 whole entry): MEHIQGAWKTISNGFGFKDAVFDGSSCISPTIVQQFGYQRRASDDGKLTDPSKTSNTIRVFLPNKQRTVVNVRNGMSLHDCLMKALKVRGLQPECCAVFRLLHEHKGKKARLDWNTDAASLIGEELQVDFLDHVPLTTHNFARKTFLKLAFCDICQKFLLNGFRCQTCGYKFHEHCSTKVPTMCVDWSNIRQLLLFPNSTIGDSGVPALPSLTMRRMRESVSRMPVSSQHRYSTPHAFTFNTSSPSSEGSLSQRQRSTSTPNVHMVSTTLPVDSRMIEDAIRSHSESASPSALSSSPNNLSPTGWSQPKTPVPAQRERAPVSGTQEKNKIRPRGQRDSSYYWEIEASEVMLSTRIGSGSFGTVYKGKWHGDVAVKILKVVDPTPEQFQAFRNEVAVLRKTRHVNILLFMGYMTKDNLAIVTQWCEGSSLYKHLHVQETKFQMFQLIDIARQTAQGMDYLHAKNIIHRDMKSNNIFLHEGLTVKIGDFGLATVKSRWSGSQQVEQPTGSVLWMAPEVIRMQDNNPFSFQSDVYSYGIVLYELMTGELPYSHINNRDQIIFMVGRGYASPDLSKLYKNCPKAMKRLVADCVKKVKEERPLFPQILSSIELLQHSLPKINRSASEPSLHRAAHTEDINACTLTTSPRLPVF

MAP4K4 = MAP4K4 (Homo sapiens, UniProt O95819); experiment: Kinase activity assay, MAP4K4
Sequence of MAP4K4 (O95819 whole entry): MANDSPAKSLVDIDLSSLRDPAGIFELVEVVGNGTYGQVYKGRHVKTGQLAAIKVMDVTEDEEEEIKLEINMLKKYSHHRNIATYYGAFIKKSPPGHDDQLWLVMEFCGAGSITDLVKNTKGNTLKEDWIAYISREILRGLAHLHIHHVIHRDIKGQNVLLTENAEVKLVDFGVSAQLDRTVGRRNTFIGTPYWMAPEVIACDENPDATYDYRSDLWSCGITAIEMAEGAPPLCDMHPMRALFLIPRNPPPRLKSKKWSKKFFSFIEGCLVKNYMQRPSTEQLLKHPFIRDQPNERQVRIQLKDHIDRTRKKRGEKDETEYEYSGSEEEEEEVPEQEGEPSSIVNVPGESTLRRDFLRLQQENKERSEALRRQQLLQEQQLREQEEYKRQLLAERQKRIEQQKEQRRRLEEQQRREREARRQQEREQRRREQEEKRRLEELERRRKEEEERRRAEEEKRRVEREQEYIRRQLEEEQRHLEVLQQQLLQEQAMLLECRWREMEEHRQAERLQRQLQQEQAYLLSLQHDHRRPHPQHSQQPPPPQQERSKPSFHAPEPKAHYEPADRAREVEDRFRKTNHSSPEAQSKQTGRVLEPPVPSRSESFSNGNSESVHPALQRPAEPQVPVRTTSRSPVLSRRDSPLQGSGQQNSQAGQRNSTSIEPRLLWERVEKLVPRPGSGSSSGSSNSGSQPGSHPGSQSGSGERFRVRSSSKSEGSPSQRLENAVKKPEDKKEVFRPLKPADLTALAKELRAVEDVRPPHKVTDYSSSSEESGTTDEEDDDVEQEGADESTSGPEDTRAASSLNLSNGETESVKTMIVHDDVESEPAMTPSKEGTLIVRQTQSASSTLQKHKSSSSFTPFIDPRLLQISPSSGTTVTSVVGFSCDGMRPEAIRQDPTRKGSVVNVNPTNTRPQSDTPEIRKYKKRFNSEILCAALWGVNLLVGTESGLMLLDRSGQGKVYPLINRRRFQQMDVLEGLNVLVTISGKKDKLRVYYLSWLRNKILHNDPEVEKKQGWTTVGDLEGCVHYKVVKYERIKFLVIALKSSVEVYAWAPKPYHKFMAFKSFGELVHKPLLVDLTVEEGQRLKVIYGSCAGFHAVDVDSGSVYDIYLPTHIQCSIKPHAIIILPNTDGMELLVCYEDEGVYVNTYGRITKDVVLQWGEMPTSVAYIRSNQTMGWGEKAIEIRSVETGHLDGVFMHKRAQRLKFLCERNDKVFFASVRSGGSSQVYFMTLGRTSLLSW

Kit = Kit (Homo sapiens, UniProt P10721); experiment: Kinase activity assay, Kit
Sequence of Kit (P10721 26-976): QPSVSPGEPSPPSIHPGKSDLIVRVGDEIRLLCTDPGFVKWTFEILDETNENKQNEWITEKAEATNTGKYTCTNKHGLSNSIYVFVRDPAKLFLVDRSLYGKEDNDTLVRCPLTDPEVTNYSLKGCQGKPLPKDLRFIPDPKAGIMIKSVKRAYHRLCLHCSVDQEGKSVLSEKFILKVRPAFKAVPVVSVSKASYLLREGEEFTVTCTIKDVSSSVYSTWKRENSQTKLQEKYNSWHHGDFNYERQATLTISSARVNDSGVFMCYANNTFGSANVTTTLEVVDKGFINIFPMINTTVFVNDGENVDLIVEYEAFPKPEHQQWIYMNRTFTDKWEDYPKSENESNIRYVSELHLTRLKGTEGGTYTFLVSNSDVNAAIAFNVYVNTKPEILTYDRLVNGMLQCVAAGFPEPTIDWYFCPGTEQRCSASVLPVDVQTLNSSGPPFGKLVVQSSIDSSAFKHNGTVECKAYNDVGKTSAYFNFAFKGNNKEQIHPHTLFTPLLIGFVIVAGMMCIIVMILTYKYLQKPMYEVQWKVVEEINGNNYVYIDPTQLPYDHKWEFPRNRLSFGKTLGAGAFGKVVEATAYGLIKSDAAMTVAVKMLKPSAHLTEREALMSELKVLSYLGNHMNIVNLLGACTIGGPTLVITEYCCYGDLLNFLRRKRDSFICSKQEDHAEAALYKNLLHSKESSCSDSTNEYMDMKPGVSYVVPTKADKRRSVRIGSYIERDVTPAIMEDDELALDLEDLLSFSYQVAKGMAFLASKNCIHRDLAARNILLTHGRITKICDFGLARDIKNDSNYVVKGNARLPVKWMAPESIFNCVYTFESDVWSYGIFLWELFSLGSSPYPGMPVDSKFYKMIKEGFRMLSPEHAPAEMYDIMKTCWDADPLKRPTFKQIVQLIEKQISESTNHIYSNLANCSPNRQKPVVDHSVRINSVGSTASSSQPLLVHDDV

Src = Src (Homo sapiens, UniProt P12931); experiment: Kinase activity assay, Src
Sequence of Src (P12931 whole entry): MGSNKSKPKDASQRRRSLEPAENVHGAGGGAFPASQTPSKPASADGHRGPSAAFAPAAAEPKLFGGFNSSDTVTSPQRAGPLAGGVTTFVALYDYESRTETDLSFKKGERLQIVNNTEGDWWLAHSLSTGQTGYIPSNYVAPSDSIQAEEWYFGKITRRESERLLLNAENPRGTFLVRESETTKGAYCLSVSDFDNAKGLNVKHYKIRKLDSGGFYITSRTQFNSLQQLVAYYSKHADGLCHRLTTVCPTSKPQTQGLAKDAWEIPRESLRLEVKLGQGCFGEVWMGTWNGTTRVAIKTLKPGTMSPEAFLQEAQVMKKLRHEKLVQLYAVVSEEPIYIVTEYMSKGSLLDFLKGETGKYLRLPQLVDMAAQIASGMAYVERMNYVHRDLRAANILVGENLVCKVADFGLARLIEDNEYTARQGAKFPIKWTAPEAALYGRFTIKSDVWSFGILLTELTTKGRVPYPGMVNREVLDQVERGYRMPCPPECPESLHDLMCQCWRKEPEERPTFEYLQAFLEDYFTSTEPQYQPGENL

Fms = Fms (Homo sapiens, UniProt P07333); experiment: Kinase activity assay, Fms

Measured: pIC50

Sequence of B-Raf (P15056 whole entry): as the sequence (P15056 whole entry V600E) above, with E600V counted along it
Sequence of Btk (Q06187 whole entry): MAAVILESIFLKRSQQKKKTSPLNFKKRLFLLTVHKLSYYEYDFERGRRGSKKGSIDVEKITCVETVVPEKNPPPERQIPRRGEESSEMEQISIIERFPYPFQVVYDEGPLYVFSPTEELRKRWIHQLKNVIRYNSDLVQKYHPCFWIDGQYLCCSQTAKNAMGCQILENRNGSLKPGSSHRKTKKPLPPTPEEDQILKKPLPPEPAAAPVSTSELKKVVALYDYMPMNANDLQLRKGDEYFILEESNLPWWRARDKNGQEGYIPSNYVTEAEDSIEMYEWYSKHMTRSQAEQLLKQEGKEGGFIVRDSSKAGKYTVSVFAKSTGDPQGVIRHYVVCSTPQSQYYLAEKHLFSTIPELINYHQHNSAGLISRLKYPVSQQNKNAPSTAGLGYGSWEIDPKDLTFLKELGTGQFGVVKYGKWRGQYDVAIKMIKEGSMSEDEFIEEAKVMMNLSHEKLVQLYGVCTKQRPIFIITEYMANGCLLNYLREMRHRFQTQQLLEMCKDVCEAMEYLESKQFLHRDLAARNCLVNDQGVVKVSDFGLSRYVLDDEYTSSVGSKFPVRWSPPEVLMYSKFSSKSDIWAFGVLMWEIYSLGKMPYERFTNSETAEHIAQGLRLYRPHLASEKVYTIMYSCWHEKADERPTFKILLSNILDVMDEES

N#Cc1cnc2[nH]cc(C(=O)c3cccc(NS(=O)(=O)c4cccnc4)c3F)c2c1 [P-2086, Pyridine-3-sulfonic acid [3-(5-cyano-1H-pyrrolo[2,3-b]pyridine-3-carbonyl)-2-fluoro-phenyl]-amide]
≥ 5.00: Btk

CCCS(=O)(=O)Nc1ccc(F)c(C(=O)c2c[nH]c3ncc(CCCN4CCOCC4)cc23)c1F [P-2247, Propane-1-sulfonic acid {2,4-difluoro-3-[5-(3-morpholin-4-yl-propyl)-1H-pyrrolo[2,3-b]pyridine-3-carbonyl]-phenyl}-amide]
not listed: Btk | Kit | Src | Fms
≥ 5.00: all other assays above

CCCS(=O)(=O)Nc1ccc(F)c(C(=O)c2c[nH]c3ncc(-c4ccc(F)c(C(F)(F)F)c4)cc23)c1F [P-2160, Propane-1-sulfonic acid {2,4-difluoro-3-[5-(4-fluoro-3-trifluoromethyl-phenyl)-1H-pyrrolo[2,3-b]pyridine-3-carbonyl]-phenyl}-amide]
≥ 5.00: B-Raf V600E | Btk | Kdr

N#Cc1ccnc2[nH]cc(C(=O)c3c(F)ccc(NS(=O)(=O)c4ccccc4F)c3F)c12 [P-2020, N-[3-(4-Cyano-1H-pyrrolo[2,3-b]pyridine-3-carbonyl)-2,4-difluoro-phenyl]-2-fluoro-benzenesulfonamide]
not listed: Btk | MAP4K4 | Fms
≥ 5.00: all other assays above

CCCS(=O)(=O)Nc1ccc(F)c(C(=O)c2c[nH]c3ncc(CN4CCN(C)CC4)cc23)c1F [P-2257, Propane-1-sulfonic acid {2,4-difluoro-3-[5-(4-methyl-piperazin-1-ylmethyl)-1H-pyrrolo[2,3-b]pyridine-3-carbonyl]-phenyl}-amide]
≥ 5.00: B-Raf | B-Raf V600E | TEC | A-Raf | C-Raf

Cc1cnc2[nH]cc(C(=O)c3c(F)ccc(NS(=O)(=O)C(C)C)c3F)c2c1 [P-2278, Propane-2-sulfonic acid [2,4-difluoro-3-(5-methyl-1H-pyrrolo[2,3-b]pyridine-3-carbonyl)-phenyl]-amide]
not listed: Btk | Kit | Src | Fms
≥ 5.00: all other assays above

CCS(=O)(=O)Nc1cccc(C(=O)c2c[nH]c3ncc(C#N)cc23)c1F [P-2410, Ethanesulfonic acid [3-(5-cyano-1H-pyrrolo[2,3-b]pyridine-3-carbonyl)-2-fluoro-phenyl]-amide]
≥ 5.00: B-Raf V600E | Btk | C-Raf

N#Cc1cnc2[nH]cc(C(=O)c3c(F)ccc(NS(=O)(=O)c4ccccc4)c3F)c2c1 [P-2046, N-[3-(5-Cyano-1H-pyrrolo[2,3-b]pyridine-3-carbonyl)-2,4-difluoro-phenyl]-benzenesulfonamide]
not listed: Btk | Kdr | MAP4K4 | Fms
≥ 5.00: all other assays above

O=C(c1c(F)ccc(NS(=O)(=O)C2CCC2)c1F)c1c[nH]c2ncc(Cl)cc12 [P-2354, Cyclobutanesulfonic acid [3-(5-chloro-1H-pyrrolo[2,3-b]pyridine-3-carbonyl)-2,4-difluoro-phenyl]-amide]
not listed: Btk | Fms
≥ 5.00: all other assays above

CCCS(=O)(=O)Nc1ccc(F)c(C(=O)c2c[nH]c3ncc(CO)cc23)c1F [P-2250, Propane-1-sulfonic acid [2,4-difluoro-3-(5-hydroxymethyl-1H-pyrrolo[2,3-b]pyridine-3-carbonyl)-phenyl]-amide]
≥ 5.00: B-Raf | B-Raf V600E | Kdr | TEC | A-Raf | C-Raf

CCCS(=O)(=O)Nc1ccc(F)c(C(=O)c2c[nH]c3ncc(CCCN4CCCC4)cc23)c1F [P-2248, Propane-1-sulfonic acid {2,4-difluoro-3-[5-(3-pyrrolidin-1-yl-propyl)-1H-pyrrolo[2,3-b]pyridine-3-carbonyl]-phenyl}-amide]
≥ 5.00: B-Raf | B-Raf V600E | Kdr | TEC | A-Raf | C-Raf

C#Cc1ccnc2[nH]cc(C(=O)c3c(F)ccc(NS(=O)(=O)CCC)c3F)c12 [P-2261, Propane-1-sulfonic acid [3-(4-ethynyl-1H-pyrrolo[2,3-b]pyridine-3-carbonyl)-2,4-difluoro-phenyl]-amide]
not listed: Btk | MAP4K4 | Kit | Fms
≥ 5.00: all other assays above

N#Cc1cnc2[nH]cc(C(=O)c3c(F)ccc(NS(=O)(=O)C4CCC4)c3F)c2c1 [P-2353, Cyclobutanesulfonic acid [3-(5-cyano-1H-pyrrolo[2,3-b]pyridine-3-carbonyl)-2,4-difluoro-phenyl]-amide]
not listed: Btk | Src | Fms
≥ 5.00: all other assays above

CN(C)S(=O)(=O)Nc1ccc(F)c(C(=O)c2c[nH]c3ncccc23)c1 [P-2469, N,N-dimethylamino-sulfonic acid [4-fluoro-3-(1H-pyrrolo[2,3-b]pyridine-3-carbonyl)-phenyl]-amide]
≥ 5.00: Btk | Fms | Kdr

CS(=O)(=O)Nc1ccc(F)c(C(=O)c2c[nH]c3nccc(C#N)c23)c1F [P-2292, N-[3-(4-Cyano-1H-pyrrolo[2,3-b]pyridine-3-carbonyl)-2,4-difluoro-phenyl]-methanesulfonamide]
≥ 5.00: B-Raf V600E | Kdr | TEC | A-Raf | C-Raf

O=C(c1cc(NS(=O)(=O)c2ccc(F)cc2)ccc1F)c1c[nH]c2ncccc12 [P-2114, 4-Fluoro-N-[4-fluoro-3-(1H-pyrrolo[2,3-b]pyridine-3-carbonyl)-phenyl]-benzenesulfonamide]
≥ 5.00: Btk | Fms | Kdr | Kit

COc1ccnc2[nH]cc(C(=O)c3c(F)ccc(NS(=O)(=O)c4ccc(C(F)(F)F)cc4)c3F)c12 [P-2047, N-[2,4-Difluoro-3-(4-methoxy-1H-pyrrolo[2,3-b]pyridine-3-carbonyl)-phenyl]-4-trifluoromethyl-benzenesulfonamide]
not listed: Btk | Kdr | MAP4K4 | Fms
≥ 5.00: all other assays above

O=C(c1c(F)ccc(NS(=O)(=O)c2ccccn2)c1F)c1c[nH]c2ncc(Cl)cc12 [P-2067, Pyridine-2-sulfonic acid [3-(5-chloro-1H-pyrrolo[2,3-b]pyridine-3-carbonyl)-2,4-difluoro-phenyl]-amide]
not listed: Btk | Kit | Fms
≥ 5.00: all other assays above
